Patent publication US7355051B2, “Piperdine-amino-benzimidazole derivatives as inhibitors of respiratory syncytial virus replication” (Tibotec Pharmaceuticals, priority 2003, dated 2008)
Read-outs that look alike come from different tables or passages of the source.

Experiments:
[1] = system: Respiratory Syncytial Virus; assay: microbe, parasite or virus in culture; assay type: cell-based; settings: for EC50: human respiratory syncytial virus, 168 h
Text: The percent protection against cytopathology caused by viruses (antiviral activity or EC50) achieved by tested compounds and their cytotoxicity (CC50) are both calculated from dose-response curves. The selectivity of the antiviral effect is represented by the selectivity index (SI), calculated by dividing the CC50 (cytotoxic dose for 50% of the cells) by the EC50 (antiviral activity for 50% of the cells).
Automated tetrazolium-based […] assays were used for determination of EC50 and CC50 of test compounds. Flat-bottom, 96-well plastic microtiter trays were filled with 180 μl of Eagle's Basal Medium, supplemented with 5% FCS (0% for FLU) and 20 mM Hepes buffer. Subsequently, stock solutions (7.8× final test concentration) of compounds were added in 45 μl volumes to a series of triplicate wells so as to allow simultaneous evaluation of their effects on virus- and mock-infected cells. Five five-fold dilutions were made directly in the microtiter trays using a robot system. Untreated virus controls, and HeLa cell controls were included in each test. Approximately 100 TCID50 of Respiratory Syncytial Virus was added to two of the three rows in a volume of 50 μl. The same volume of medium was added to the third row to measure the cytotoxicity of the compounds at the same concentrations as those used to measure the antiviral activity. After two hours of incubation, a suspension (4×10^5 cells/ml) of HeLa cells was added to all wells in a volume of 50 μl. The cultures were incubated at 37° C. in a 5% CO2 atmosphere. Seven days after infection the cytotoxicity and the antiviral activity was examined spectrophotometrically. To each well of the microtiter tray, 25 μl of a solution of MTT (3-(4,5-dimethylthiazol-2-yl)-2,5-diphenyltetrazolium bromide) was added. The trays were further incubated at 37° C. for 2 hours, after which the medium was removed from each cup. Solubilization of the formazan crystals was achieved by adding 100 μl 2-propanol. Complete dissolution of the formazan crystals were obtained after the trays have been placed on a plate shaker for 10 min. Finally, the absorbances were read in an eight-channel computer-controlled photometer (Multiskan MCC, Flow Laboratories) at two wavelengths (540 and 690 nm). The absorbance measured at 690 nm was automatically subtracted from the absorbance at 540 nm, so as to eliminate the effects of non-specific absorption.

[2] = Table 1, pEC50 (−log of EC50 in molar units), RSV-infected HeLa cells, MTT read-out seven days after infection, read-out: Activity (converted)
[3] = Table 3, pEC50 (−log of EC50 in molar units), RSV-infected HeLa cells, MTT read-out seven days after infection, read-out: Activity (converted)

Compound: Cc1cc(C)c2nc(NC3CCN(CCC(N)=O)CC3)n(Cc3nc(C)ccc3O)c2c1
- melting point: 212 °C

Compound: 6-methyl-2-[4-methyl-2-(1-methyl-piperidin-4-ylamino)-benzoimidazol-1-ylmethyl]-pyridin-3-ol [Compound 34]
- Activity ([1]; Table 3, pEC50 (−log of EC50 in molar units), RSV-infected HeLa cells, MTT read-out seven days after infection): 6.8

Compound: Cc1cc(C)c2nc(NC3CCN(CCCS(N)(=O)=O)CC3)n(Cc3nc(C)ccc3O)c2c1 [Compound 1, 3-{4-[1-(3-hydroxy-6-methyl-pyridin-2-ylmethyl)-4,6-dimethyl-1H-benzoimidazol-2-ylamino]-piperidin-1-yl}-propane-1-sulfonic acid amide]
- melting point: 180 °C
- EC50 [1, 2]: 2 nM

Compound: Cc1cc(C)c2nc(NC3CCN(CCO)CC3)n(Cc3nc(C)ccc3O)c2c1 [Compound 2, 2-{2-[1-(2-hydroxy-ethyl)-piperidin-4-ylamino]-4,6-dimethyl-benzoimidazol-1-ylmethyl}-6-methyl-pyridin-3-ol]
- melting point: 177 °C
- EC50 [1, 2]: 3.16 nM

Compound: Cc1cc(C)c2nc(NC3CCN(CCCO)CC3)n(Cc3nc(C)ccc3O)c2c1 [Compound 4, 2-{2-[1-(3-hydroxy-propyl)-piperidin-4-ylamino]-4,6-dimethyl-benzoimidazol-1-ylmethyl}-6-methyl-pyridin-3-ol]
- melting point: 209 °C
- EC50 [1, 2]: 7.94 nM

Compound: CCOC(=O)CCN1CCC(Nc2nc3c(C)cc(C)cc3n2Cc2nc(C)ccc2O)CC1 [Compound 10, 3-{4-[1-(3-Hydroxy-6-methyl-pyridin-2-ylmethyl)-4,6-dimethyl-1H-benzoimidazol-2-ylamino]-piperidin-1-yl}-propionic acid ethyl ester]
- melting point: 172 °C
- EC50 [1, 2]: 79.4 nM

Compound: Cc1cc(C)c2c(c1)nc(NC1CCN(CCO)CC1)n2Cc1nc(C)ccc1O [Compound 15, 2-{2-[1-(2-hydroxy-ethyl)-piperidin-4-ylamino]-5,7-dimethyl-benzoimidazol-1-ylmethyl}-6-methyl-pyridin-3-ol]
- melting point: 143 °C
- EC50 ([1]; Table 2, pEC50 (−log of EC50 in molar units), RSV-infected HeLa cells, MTT read-out seven days after infection, read-out: Activity (converted)): 398 nM

Compound: Cc1ccc(O)c(Cn2c(NC3CCN(CCN4CCCC4)CC3)nc3c(C)cccc32)n1 [Compound 18, 6-Methyl-2-{4-methyl-2-[1-(2-pyrrolidin-1-yl-ethyl)-piperidin-4-ylamino]-benzoimidazol-1-ylmethyl}-pyridin-3-ol]
- melting point: 225 °C
- EC50 [1, 3]: 10 nM

Compound: Cc1ccc(O)c(Cn2c(NC3CCN(CCCS(N)(=O)=O)CC3)nc3c(C)cccc32)n1 [Compound 19, 3-{4-[1-(3-hydroxy-6-methyl-pyridin-2-ylmethyl)-4-methyl-1H-benzoimidazol-2-ylamino]-piperidin-1-yl}-propane-1-sulfonic acid amide]
- melting point: 250 °C
- EC50 [1, 3]: 12.6 nM

Compound: Cc1ccc(O)c(Cn2c(NC3CCN(CCOC(=O)Cc4ccccc4)CC3)nc3c(C)cccc32)n1 [Compound 24, Phenyl-acetic acid 2-{4-[1-(3-hydroxy-6-methyl-pyridin-2-ylmethyl)-4-methyl-1H-benzoimidazol-2-ylamino]-piperidin-1-yl}-ethyl ester]
- melting point: 207 °C
- EC50 ([1]; HeLa, read-out: Activity): 31.6 nM

Compound: Cc1ccc(O)c(Cn2c(NC3CCN(CCC(N)=O)CC3)nc3c(C)cccc32)n1 [Compound 27, 3-{4-[1-(3-Hydroxy-6-methyl-pyridin-2-ylmethyl)-4-methyl-1H-benzoimidazol-2-ylamino]-piperidin-1-yl}-propionamide]
- melting point: 258 °C
- EC50 [1, 3]: 50.1 nM

Compound: CCOC(=O)CCN1CCC(Nc2nc3c(C)cccc3n2Cc2nc(C)ccc2O)CC1 [Compound 32, 3-{4-[1-(3-Hydroxy-6-methyl-pyridin-2-ylmethyl)-4-methyl-1H-benzoimidazol-2-ylamino]-piperidin-1-yl}-propionic acid ethyl ester]
- melting point: 226 °C
- EC50 [1, 3]: 158 nM

Compound: Cc1ccc(O)c(Cn2c(NC3CCN(CCC(=O)O)CC3)nc3c(C)cccc32)n1.Cl [Compound 33, 3-{4-[1-(3-hydroxy-6-methyl-pyridin-2-ylmethyl)-4-methyl-1H-benzoimidazol-2-ylamino]-piperidin-1-yl}-propionic acid hydrochloride salt]
- melting point: 245 °C
- EC50 [1, 3]: 158 nM

Compound: Cc1ccc(O)c(Cn2c(NC3CCN(CC(O)C(C)C)CC3)nc3c(C)cccc32)n1 (stereo not drawn) [Compound 35, 2-{2-[1-(2-hydroxy-3-methyl-butyl)-piperidin-4-ylamino]-4-methyl-benzoimidazol-1-ylmethyl}-6-methyl-pyridin-3-ol]
- melting point: 230 °C
- EC50 [1, 3]: 158 nM

Compound: Cc1ccc(O)c(Cn2c(NC3CCN(CCOC(N)=O)CC3)nc3c(C)cccc32)n1 [Compound 37, Carbamic acid 2-{4-[1-(3-hydroxy-6-methyl-pyridin-2-ylmethyl)-4-methyl-1H-benzoimidazol-2-ylamino]-piperidin-1-yl}-ethyl ester]
- melting point: 222 °C
- EC50 [1, 3]: 158 nM

Compound: COc1ccc(OCC(O)CN2CCC(Nc3nc4c(C)cccc4n3Cc3nc(C)ccc3O)CC2)cc1 (stereo not drawn) [Compound 41, 2-(2-{1-[2-hydroxy-3-(4-methoxy-phenoxy)-propyl]-piperidin-4-ylamino}-4-methyl-benzoimidazol-1-ylmethyl)-6-methyl-pyridin-3-ol]
- melting point: 227 °C
- EC50 [1, 3]: 316 nM
